Where two headings read alike, the source gives them in different places.
What was measured:
dopamine autoreceptor = biological target: T1, dopamine autoreceptor (Rattus norvegicus, UniProt P61169); test: Affinity for the dopamine autoreceptor: [3H]-quinpirole binding in homogenized rat striatal brain tissue; conditions: for IC50: [3H]-quinpirole, rat striatal brain tissue, read-out: IC50 (nM) D2 Quin.; for Ratio antagonist: ratio of D2 Spiper IC50 to D2 Quin. IC50 (LowAg/HighAg, predicts intrinsic activity)
T1 construct: from tissue; host or cells: rat striatal brain tissue homogenate
Protocol: Affinity for the dopamine autoreceptor was established by a modification of the standard experimental test procedure of Seemen and Schaus, European Journal of Pharmacology 203: 105-109, 1991, wherein homogenized rat striatal brain tissue is incubated with [^3H]-quinpirole (Quin.) at various concentrations of test compound, filtered, washed and counted in a Betaplate scintillation counter.

5-HT1a = biological target: T2, 5-HT1a (Homo sapiens, UniProt P08908); test: 5-HT1a binding (method not described)
T2 sequence (P08908 1-422): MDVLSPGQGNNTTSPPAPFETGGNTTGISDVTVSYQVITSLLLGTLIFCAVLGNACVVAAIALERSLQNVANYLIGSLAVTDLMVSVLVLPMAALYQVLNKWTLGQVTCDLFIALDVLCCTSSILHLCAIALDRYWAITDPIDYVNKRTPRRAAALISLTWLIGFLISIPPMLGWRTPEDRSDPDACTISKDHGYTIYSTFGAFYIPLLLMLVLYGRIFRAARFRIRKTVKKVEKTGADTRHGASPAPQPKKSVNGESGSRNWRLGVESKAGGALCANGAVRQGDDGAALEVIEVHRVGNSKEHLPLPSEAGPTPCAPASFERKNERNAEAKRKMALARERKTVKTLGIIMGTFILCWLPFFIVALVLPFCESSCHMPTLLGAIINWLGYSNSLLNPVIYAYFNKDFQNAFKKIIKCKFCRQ

α1 = α1 binding (method not described)

T1 sequence (P61169 whole entry): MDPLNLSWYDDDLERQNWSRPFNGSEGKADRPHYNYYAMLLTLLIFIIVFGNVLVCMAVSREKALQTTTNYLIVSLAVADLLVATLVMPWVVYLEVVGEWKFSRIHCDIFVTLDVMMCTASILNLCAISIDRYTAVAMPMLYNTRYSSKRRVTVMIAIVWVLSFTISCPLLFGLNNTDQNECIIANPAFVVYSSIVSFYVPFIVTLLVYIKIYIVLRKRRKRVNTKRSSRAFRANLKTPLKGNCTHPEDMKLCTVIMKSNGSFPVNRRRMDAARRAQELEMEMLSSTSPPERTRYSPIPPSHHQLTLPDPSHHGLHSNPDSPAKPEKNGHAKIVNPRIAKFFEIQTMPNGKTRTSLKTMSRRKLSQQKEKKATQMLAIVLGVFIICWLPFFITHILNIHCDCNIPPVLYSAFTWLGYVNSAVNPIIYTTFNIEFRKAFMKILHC

| IC50 (5-HT1a; read-out: IC50 (nM) 5-HT1a.) [nM] | Compound | IC50 (dopamine autoreceptor) [nM] | Ratio antagonist (dopamine autoreceptor) | IC50 (α1) [nM] | IC50 (5-HT1a; IC50 (nM) 5-HT1a.) [nM] |
| --- | --- | --- | --- | --- | --- |
| 10 | Cc1ccc(CNCC2CCc3ccc4c(c3O2)CC(=O)N4)cc1 (centres unmarked) [Example 1d, 2-(4-Methyl-benzylamino-methyl)-3,4,7,9-tetrahydro-2H-pyrano[2,3-e]indol-8-one] | 0.45 | 229 | 194 | – |
| 38 | COc1ccc(CNCC2CCc3ccc4c(c3O2)CC(=O)N4)cc1 (centres unmarked) [Example 1c, 2-(4-Methoxy-benzylamino-methyl)-3,4,7,9-tetrahydro-2H-pyrano[2,3-e]indol-8-one] | 0.96 | 307 | 258 | – |
| – | Cc1ccc(CNCC2CCc3ccc4c(c3O2)CC(=O)N4)c(C)c1 (centres unmarked) [Example 1f, 2-(2,4-Dimethyl-benzylamino-methyl)-3,4,7,9-tetrahydo-2H-pyrano[2,3-e]indol-8-one] | 2.62 | 150 | 81 | 15 |
| 7.53 | O=C1Cc2c(ccc3c2OC(CNCc2ccc(Cl)cc2)CC3)N1 (centres unmarked) [Example 1e, 2-(4-Chloro-benzylamino-methyl)-3,4,7,9-tetrahydro-2H-pyrano[2,3-e]indol-8-one] | 0.64 | 233 | 184 | – |
| 16 | O=C1Cc2c(ccc3c2OC(CNCc2ccc(F)cc2)CC3)N1 (centres unmarked) [Example 1b, 2-(4-Fluoro-benzylamino-methyl)-3,4,7,9-tetrahydro-2H-pyrano[2,3-e]indol-8-one] | 0.83 | 375 | 352 | – |

| Compound | IC50 (5-HT1a; read-out: IC50 (nM) 5-HT1a.) [nM] | IC50 (dopamine autoreceptor) [nM] | Ratio antagonist (dopamine autoreceptor) | IC50 (α1) [nM] | IC50 (5-HT1a; IC50 (nM) 5-HT1a.) [nM] |
| --- | --- | --- | --- | --- | --- |
| O=C1Cc2c(ccc3c2OC(CNCc2ccccc2)CC3)N1 (single isomer, unassigned; (+)) [Example 2a, (+)-2-(benzylamino-methyl)-3,4,7,9-tetrhydro-2H-pyrano[2,3-e]indol-8-one] | 330 | 16.4 | 45 | 519 | – |
| O=C1Cc2c(ccc3c2OC(CNCc2ccccc2)CC3)N1 (single isomer, unassigned; (-)) [Example 2b, (-)-2-(benzylamino-methyl)-3,4,7,9-tetrhydro-2H-pyrano[2,3-e]indol-8-one] | 17.1 | 0.27 | 265 | 330 | – |
| O=C1Cc2c(ccc3c2OC(CNCc2ccccc2)CC3)N1 (centres unmarked) [Example 1a, 2-(Benzylamino-methyl)-3,4,7,9-tetrahydro-2H-pyrano-[2,3-e]indol-8-one] | 34 | 0.73 | 194 | 244 | – |
